The record followed here is patent US20240415825A1, “COMPOUNDS FOR THE TREATMENT OF MALARIA” (FUNDACIÓ INSTITUT DE BIOENGINYERIA DE CATALUNYA, priority 2021, published 2024).

Read-outs that look alike come from different tables or passages of the source.

The nature of series [1]: In vivo toxicity assay in mice. Also on record: species or system BALB/c mice. On the procedure:
BALB/c female and male mice (Janvier Laboratories) were maintained with unlimited access to food and water under standard environmental conditions (20-24° C. and 12/12 h light/dark cycle). […] First, the lowest dose was intravenously injected to one female and one male mice. An oxygen stream of 4% isoflurane was used to anesthetize the mice, which were then maintained during the whole procedure (less than 3 minutes) with 2.5% isoflurane.
After the administration, mice were observed and different parameters related to their behavior (lethargy, motility alterations, seizures, coma, automutilation, aggressiveness, vocalizations, stereotyped movements) and physical conditions (pain, respiratory disturbances, tachycardia or bradycardia, dehydration, hair loss, body weight loss, dermatitis, bad hygiene, pruritus, tearing) were followed. If after 48 h no deleterious effects were observed, the following dose was administered to two other male and female mice.

The next series has as its system P. falciparum cultures. The experiment in a line: ThT analysis of protein aggregation in live P. falciparum cultures. The class given is cell-based, Plasmodium falciparum. The conditions noted are these: 90 min with 90 nM, equal protein content. On the procedure:
After 90 min, 4 h and 30 h, a Percoll purification was done in order to isolate parasitized cells from uninfected RBCs. After Percoll purification, the pellets of late stage parasites and a control non-infected RBC suspension containing the same proportion of cells than the purified cultures were resuspended in 50 μl of lysis buffer (4.5 mg/ml NaCl in water supplemented with EDTA-free protease inhibitor cocktail, PIC, Hoffman-La Roche, Basel, Switzerland; 1 PIC tablet/10 ml water) and incubated overnight, at 4° C. under stirring, with the objective of releasing their inner content. After this time, lysed samples were spun down and the protein content in the supernatant was quantified with the bicinchoninic acid assay (Thermo Fisher Scientific), following the manufacturer's instructions. 30 μg of protein from each supernatant were further diluted with PBS to a final volume of 70 μl and plated on a 96-well black plate in triplicates. ThT fluorescence was measured as described above.

Series [2] concerns P. falciparum ring or trophozoite stage cultures. Kind of series: Stage of growth inhibition analysis. The class given is cell-based, Plasmodium falciparum. As to conditions: added to ring stages at its IC80. On the procedure: For stage of growth inhibition analysis, P. falciparum cultures were synchronized at ring or trophozoite stages by repeated treatment with 5% sorbitol or 70% Percoll, respectively. Half of each culture remained untreated and the other half was treated with the IC80 of AID-X-2020. At different time points, culture samples were stained with Giemsa and the number of rings, early and mature trophozoites and schizonts was counted by microscopic examination of at least 100 pRBCs for each sample. Pictures were taken with a Nikon Eclipse 50i microscope equipped with a DS-Fi1 camera (Nikon).

In series [3] the test system is P. falciparum NF54-gexp02-Tom strain gametocytes. The experiment in a line: microbe, parasite or virus in culture. The class given is cell-based. The conditions noted are these: Plasmodium falciparum, NF54, 48 h. On the procedure: Cultures of the P. falciparum NF54-gexp02-Tom strain (developed and authenticated by Portugaliza, H. P. et al., 2019 and kindly provided by Prof. Alfred Cortes), were maintained in standard conditions in RPMI medium supplemented with 0.5% Albumax II and 2 mM choline, synchronized in ring stages with sorbitol lysis, and diluted to 2% parasitemia. To trigger sexual conversion, choline was removed from the medium and cultures were maintained in the same conditions for 48 h after synchronization (cycle 0). In the next cycle (cycle 1), parasites were treated with 50 mM N-acetylglucosamine (GlcNac) in order to kill asexual parasites, and maintained in RPMI supplemented with 10% human serum. Medium was refreshed daily and GlcNac was kept during 4 days.
Controls of untreated parasites as well as of parasites treated with a lethal dose of chloroquine were prepared. Gametocytemia was monitored daily by light microscopy until the majority of parasites (˜90%) could be identified as stage V gametocytes. At that point, Giemsa smears of each well were prepared and mature gametocytes were manually counted (10,000 cells were counted for each replica by two investigators blinded to group assignment). […] Afterwards, the culture was treated for 48 h with the drugs and the gametocytemia determined as above.

For another series, the system named is P. falciparum W2 strain. Kind of series: Growth inhibition, chloroquine-resistant W2 strain. The series is classed as cell-based. The conditions noted are these: Plasmodium falciparum. An excerpt: (§1) P. falciparum parasites of chloroquine-sensitive (3D7 strain) and chloroquine- and artemisinin-resistant strains were processed as described in section 1.1.3 of EXAMPLE 1.
(§2) In particular, the P. falciparum resistant strains were the following: (1) strain W2 MRA-157 (BEI Resources, managed by ATCC) which is chloroquine-resistant; (2) strains 3D7 harboring the K13 mutations associated to artemisinin resistance, either M5791 or R561H (both provided by Dr. David A. Fidock and referenced in Stokes, B. H. et al., 2021); (3) Cam 3.11 strain which is chloroquine and sulfadoxine/pyrimethamine-resistant; and (4) Cam 3.11 strain modified to carry K13 mutations associated to artemisinin-resistant strains, either R561H or R539T, therefore being multiresistant strains. All Cam 3.11 strains (3) and (4) were provided by Dr. David A. Fidock and are referenced in Straimer, J. et al., 2015 and Stokes, B. H. et al., 2021.
(§3) Then, the required amount of AID-X-2020 was added to each well at different concentrations (0.0001, 0.001, 0.01, 1 and 10 μM) and triplicates.

For series [4], the system named is artemisinin-resistant P. falciparum strains (3D7 and Cam 3.11 with K13 mutations). The experiment in a line: Growth inhibition, artemisinin-resistant strains. The class given is cell-based. As to conditions: Plasmodium falciparum, 3D7, read-out: IC50 in artemisinin-resistant strains.
Source text: as §1, §2, §3

Broadly, the IC50 is the concentration that gives 50% inhibition.

In the case of `CCN(CC)c1ccc(/C=C/c2cc[n+](CCCCCCCCCC[n+]3ccc(/C=C/c4ccc(N(CC)CC)cc4)c(C)c3)cc2C)cc1` [AID-X-2020, 1,1′-(decane-1,10-diyl)bis{4-[(E)-4-(diethylamino)styryl]-3-methylpyridin-1-ium} dibromide], the “dose at which adverse effects start” value in series [1] (female mice) came out at 10 mg/kg. For the same compound, the “dose at which toxicity starts being observed” value in series [1] (male mice) amounted to 17 mg/kg. Moreover, the “ThT fluorescence of culture extracts” value with P. falciparum cultures is “reduced emission spectrum”. The “stage of growth arrest” value in series [2] was “arrested the life cycle of the pathogen at trophozoite stage”. Also, the IC50 in series [3] (read-out: IC50 on early gametocytes) is 95 ± 3 nM; in series [3] (read-out: IC50 on mature stage V (late) gametocytes), 103 ± 3 nM; with P. falciparum W2 strain, 90 ± 1 nM; in series [4] it was 90 to 160 nM.
